Source: patent US8993606B2, “Oral formulations for treating metal overload” (FerroKin BioSciences, Inc., priority 2011, dated 2015)
Where two headings read alike, the source gives them in different places.

How the values were obtained:
[1] = tested on: pediatric subjects (aged 6-18 years) with documented transfusional iron overload; assay: Safety: pediatric Phase 2 study; format: in vivo, human
Excerpt: A pediatric study is an ongoing Phase 2 multicenter, randomized, open-label study of pediatric subjects (aged 6-18 years) with documented transfusional iron overload in need of chelation therapy. 6 subjects (aged 12-<18 years) of a planned 30 subjects had been enrolled and administered investigational product. These subjects received a single dose for pharmacokinetic analysis with the option to continue in the 48-week study. […] Dosing was temporarily discontinued for 2 subjects; 1 subject for moderate decrease in neutrophil count, which was considered possibly related, and 1 for a mild upper respiratory tract infection that was considered not related. Treatment-emergent AEs were reported for 5 of the 6 subjects. Treatment emergent AEs considered possibly related to the investigational product include arthralgia (1), decreased neutrophil count (1), neutropenia (1), and headache (1).

[2] = Example 9: single-dose study in healthy human subjects 30-75 mg/kg and 20 mg/kg x 2 (PK); format: in vivo; settings: for Vd/F / AUC(0-inf) / AUC(0-t) / Cmax / half-life / Tmax / CL renal: human; for Vd/F / AUC(0-inf) / AUC(0-t) / Cmax / half-life / Tmax: plasma; for Vd/F: read-out: VZ/F; for CL renal: urine and plasma
Protocol: Example 9 was a single-dose escalating study in healthy volunteers. The objectives of the study were to assess the safety, tolerability, pharmacokinetic, and pharmacodynamics of single ascending doses of Compound 1. The doses tested were 30, 40, 50, 60, and 75 mg/kg once daily and a regimen of 20 mg/kg twice a day, which extended the range of doses evaluated. This Example confirms the earlier results obtained with higher dosage, as described in Example 7.
This was a single-center, double-blind, placebo-controlled study of ascending single oral doses of Compound 1. Six cohorts of 8 subjects (30 and 50 mg/kg single doses) or 5 subjects (40, 60, and 75 mg/kg single doses and 20 mg/kg×2 doses at 12 hour intervals) were dosed sequentially with Compound 1. Within each cohort, 7 or 4 subjects received Compound 1 and 1 subject received placebo. Subjects in the 20 mg/kg×2 doses cohort received a dose the evening prior to the study day (Day −1), approximately 12 hours prior to dosing on Day 1. The dose administered on Day −1 followed a 2-hour fast and that on Day 1 a 10-hour fast.
A total of 36 subjects were enrolled and all subjects completed the study. The 30 subjects that received active drug comprised the pharmacokinetic (PK) analysis population.
[…] subjects receiving a single dose, blood samples for the measurement of the total (free and iron bound complex) plasma concentrations of Compound 1 were collected before and 0.25, 0.5, 0.75, 1, 1.25, 1.5, 2, 2.5, 4, 8, 12, 24, 48, 72, and 96 hours after dosing. Subjects receiving two doses of 20 mg/kg had blood collected prior and 0.5, 1, 1.5, 2, and 2.5 hours after the first dose. After the second dose in the morning of Day 1, the sampling schedule was identical to that used for subjects receiving a single dose.
In all cohorts, urine was collected in pooled intervals of 0-4, 4-8, 8-12 and 12-24 hours after the dose on Day 1 for the analysis of Compound 1 concentrations.

healthy adult subjects = assay: Safety: bioavailability study oral capsules versus oral solution in healthy subjects; format: in vivo
Protocol: This study was a study in healthy adult subjects designed to compare the bioavailability of Compound 1 when administered as an oral capsule or solution. 24 subjects were enrolled and 22 completed the study: Subjects received a single oral dose of 16 mg/kg of Compound 1 as an oral capsule or as a solution. […] Treatment-emergent AEs were reported for 14 of the 24 subjects receiving Compound 1 (58%). […] TEAEs included headache (3 subjects), fever (2 subjects), nausea (2 subjects), lethargy (2 subjects), and loss of appetite (1 subject).

[3] = 20 mg/kg × 2 at 12-hour interval
[4] = oral, 20 mg/kg × 2, for the total dose of 40 mg/kg

With `COCCOCCOCCOc1cccc(C2=N[C@@](C)(C(=O)O)CS2)c1O` [Compound 1, (S)-4,5-Dihydro-2-[2-hydroxy-3-(3,6,9-trioxadecyloxy)phenyl]-4-methyl-4-thiazolecarboxylate magnesium hydroxide] the “possibly related TEAE arthralgia” value ([1]; 6 subjects) was 1, the “possibly related TEAE decreased neutrophil count” value ([1]; 6 subjects) was 1 and the “possibly related TEAE headache” value ([1]; 6 subjects) was 1. The “possibly related TEAE neutropenia” value ([1]; 6 subjects) was 1, the SAEs ([1]; 6 subjects aged 12-<18 years) was “No SAEs have been reported” and the “subjects with treatment-emergent AEs” value ([1]; 6 subjects aged 12-<18 years) was 5 of the 6. The CL/F ([2]; 20 mg/kg × 2, calculated with total dose of 40 mg/kg) was 235 ± 96.2 mL/min, the “Ue(0-24)” value [2, 3] was 805 ± 208 mg and the λZ [2, 3] was 0.0744 ± 0.0158 h⁻¹. The “dose recovered in the urine over 24-hour post-dose period” value ([2]; 30 and 40 mg/kg) was “approximately 55%”, the Vd/F ([2]; oral, 20 mg/kg × 2, calculated with total dose of 40 mg/kg) was 208 ± 136 L and the AUC(0-inf) [2, 4] was 231 µg·h/mL. For the same compound, the AUC(0-t) [2, 4] was 221 µg·h/mL, the Cmax ([2]; oral, 20 mg/kg × 2 at 12-hour interval, for the second dose) was 52.9 µg/mL and the half-life ([2]; oral, 20 mg/kg × 2 at 12-hour interval, read-out: t1/2 (converted)) was 578 ± 137 min. For the same compound, the Tmax ([2]; oral, 20 mg/kg × 2 at 12-hour interval, second dose, median, read-out: tmax) was 0.75 h, the Tmax ([2]; oral, across cohorts, read-out: median values for Tmax, range) was 1 to 1.5 h and the half-life ([2]; oral, across cohorts, read-out: t1/2, range) was 502 to 1120 min. The AUC(0-inf) ([2]; single oral dose 30 mg/kg) was 161 µg·h/mL, the AUC(0-t) ([2]; single oral dose 30 mg/kg) was 155 µg·h/mL and the Cmax ([2]; single oral dose 30 mg/kg) was 68.2 µg/mL. It also gave a Tmax ([2]; single oral dose 30 mg/kg, median, read-out: tmax) of 1 h, a Vd/F ([2]; single oral dose 30 mg/kg) of 248 ± 58.8 L and a half-life ([2]; single oral dose 30 mg/kg, read-out: t1/2 (converted)) of 726 ± 183 min. It also gave an AUC(0-inf) ([2]; single oral dose 40 mg/kg) of 195 µg·h/mL, an AUC(0-t) ([2]; single oral dose 40 mg/kg) of 205 µg·h/mL and a Cmax ([2]; single oral dose 40 mg/kg) of 87.9 µg/mL. It also gave a Tmax ([2]; single oral dose 40 mg/kg, median, read-out: tmax) of 1.38 h, a Vd/F ([2]; single oral dose 40 mg/kg) of 542 ± 657 L and a half-life ([2]; single oral dose 40 mg/kg, read-out: t1/2 (converted)) of 1120 ± 1150 min. The AUC(0-inf) ([2]; single oral dose 50 mg/kg) was 236 µg·h/mL, the AUC(0-t) ([2]; single oral dose 50 mg/kg) was 254 µg·h/mL and the Cmax ([2]; single oral dose 50 mg/kg) was 91.7 µg/mL. The Tmax ([2]; single oral dose 50 mg/kg, median, read-out: tmax) was 1.5 h, the Vd/F ([2]; single oral dose 50 mg/kg) was 338 ± 272 L and the half-life ([2]; single oral dose 50 mg/kg, read-out: t1/2 (converted)) was 768 ± 460 min. It also gave an AUC(0-inf) ([2]; single oral dose 60 mg/kg) of 205 µg·h/mL, an AUC(0-t) ([2]; single oral dose 60 mg/kg) of 204 µg·h/mL and a Cmax ([2]; single oral dose 60 mg/kg) of 82.3 µg/mL. It also gave a Tmax ([2]; single oral dose 60 mg/kg, median, read-out: tmax) of 1.38 h, a Vd/F ([2]; single oral dose 60 mg/kg) of 454 ± 363 L and a half-life ([2]; single oral dose 60 mg/kg, read-out: t1/2 (converted)) of 660 ± 359 min. For the same compound, the AUC(0-inf) ([2]; single oral dose 75 mg/kg) was 247 µg·h/mL, the AUC(0-t) ([2]; single oral dose 75 mg/kg) was 244 µg·h/mL and the Cmax ([2]; single oral dose 75 mg/kg) was 84.6 µg/mL. For the same compound, the Tmax ([2]; single oral dose 75 mg/kg, median, read-out: tmax) was 1.38 h, the Vd/F ([2]; single oral dose 75 mg/kg) was 342 ± 83.6 L and the half-life ([2]; single oral dose 75 mg/kg, read-out: t1/2 (converted)) was 502 ± 230 min. For the same compound, the CL renal ([2]; oral, 20 mg/kg × 2 at 12-hour interval, read-out: CLr) was 131 ± 18.7 mL/min, the CL renal ([2]; oral, not dependent upon dose, read-out: Renal clearance, average) was about 140 mL/min and the CL renal ([2]; single oral dose 30 mg/kg, read-out: CLr) was 139 ± 13.2 mL/min. For the same compound, the CL renal ([2]; single oral dose 40 mg/kg, read-out: CLr) was 152 ± 18 mL/min, the CL renal ([2]; single oral dose 50 mg/kg, read-out: CLr) was 103 ± 16.2 mL/min and the CL renal ([2]; single oral dose 60 mg/kg, read-out: CLr) was 147 ± 28.2 mL/min. The CL renal ([2]; single oral dose 75 mg/kg, read-out: CLr) was 165 ± 42.7 mL/min, the CL/F ([2]; single oral dose 30 mg/kg) was 239 ± 17.2 mL/min and the “Fe(0-24)” value ([2]; single oral dose 30 mg/kg) was 54.8 ± 8.99 % Dose. For the same compound, the “Ue(0-24)” value ([2]; single oral dose 30 mg/kg) was 1,260 ± 255.3 mg, the λZ ([2]; single oral dose 30 mg/kg) was 0.0615 ± 0.0200 h⁻¹ and the CL/F ([2]; single oral dose 40 mg/kg) was 290 ± 73.8 mL/min. The “Fe(0-24)” value ([2]; single oral dose 40 mg/kg) was 57.1 ± 8.60 % Dose, the “Ue(0-24)” value ([2]; single oral dose 40 mg/kg) was 1,820 ± 397 mg and the λZ ([2]; single oral dose 40 mg/kg) was 0.0677 ± 0.0439 h⁻¹. The CL/F ([2]; single oral dose 50 mg/kg) was 286 ± 56.1 mL/min, the “Fe(0-24)” value ([2]; single oral dose 50 mg/kg) was 40.2 ± 8.69 % Dose and the “Ue(0-24)” value ([2]; single oral dose 50 mg/kg) was 1,500 ± 434 mg. For the same compound, the λZ ([2]; single oral dose 50 mg/kg) was 0.0664 ± 0.0292 h⁻¹, the CL/F ([2]; single oral dose 60 mg/kg) was 435 ± 117.0 mL/min and the “Fe(0-24)” value ([2]; single oral dose 60 mg/kg) was 33.7 ± 8.37 % Dose. The “Ue(0-24)” value ([2]; single oral dose 60 mg/kg) was 1,713 ± 480 mg, the λZ ([2]; single oral dose 60 mg/kg) was 0.0786 ± 0.0393 h⁻¹ and the CL/F ([2]; single oral dose 75 mg/kg) was 540 ± 237 mL/min. The “Fe(0-24)” value ([2]; single oral dose 75 mg/kg) was 35.0 ± 15.1 % Dose, the “Ue(0-24)” value ([2]; single oral dose 75 mg/kg) was 2,199 ± 1,189 mg and the λZ ([2]; single oral dose 75 mg/kg) was 0.0943 ± 0.0383 h⁻¹. For the same compound, the “dose recovered in the urine over 24-hour post-dose period” value ([2]; the 3 higher doses (50, 60, 75 mg/kg)) was “approximately 38%”, the “subjects with treatment-emergent AEs” value (healthy adult subjects; 14 of the 24 subjects) was 58% and the TEAE fever (healthy adult subjects; 24 subjects) was 2 subjects. The TEAE headache (healthy adult subjects; 24 subjects) was 3 subjects, the TEAE lethargy (healthy adult subjects; 24 subjects) was 2 subjects and the “TEAE loss of appetite” value (healthy adult subjects; 24 subjects) was 1 subject. The TEAE nausea (healthy adult subjects; 24 subjects) was 2 subjects, the “deaths, SAEs, withdrawals as the result of an AE” value (healthy adult subjects; single oral dose 16 mg/kg) was “no deaths, no SAEs, and no withdrawals as the result of an AE” and the “intensity of all AEs” value (healthy adult subjects; single oral dose 16 mg/kg) was “mild or moderate intensity”. The tolerability (healthy adult subjects; single oral dose 16 mg/kg, capsule or solution) was “well tolerated”.
